Laboratory results reported in patent US9115212B2, “Bifunctional peptide” (REGENTIS INTERNATIONAL, priority 2012, dated 2015).
Where a SMILES comes first, the peptide text is derived from it.

Legend:
COL1A1 gene = experiment: Gene expression of COL1A1 in fibroblast cultures (real-time PCR); assay type: cell-based, human; details: fibroblasts, 100 μg/ml, 24 h, normalised to GAPDH
Description: (§1) The gene expression of the type I and III collagens in cultures of fibroblasts was also tested in the presence of the different peptides (pept 1 to pept 5) at a concentration of 100 μg/ml.
(§2) After 24 h of treatment with different peptides, the RNAs were extracted from the cultures using a RNeasy® kit (QIAGEN), then re-transcribed into complementary DNAs (cDNAs) using the RT2 First Strand Kit from SABiosciences™.
(§3) Real-time PCR analyses were then performed using the Mx3000p thermocycler from Stratagene in a 96-well plate. Each sample was analyzed in triplicate. The CDNAs serve as matrices in a reaction mixture containing the RT2 SYBR® Green/ROX™ qPCR Master Mix reagents (SABiosciences™) and the sense and antisense primers specific for the gene to be amplified. The reading of the fluorescence was performed at the end of each cycle and analyzed by means of the MxPro software (Stratagene). The relative expression of the COL1A1 and COL3A1 genes of interest coding for type I and type III collagen was obtained by normalizing the amount of products for amplifying the gene being studied by the amount of DNA amplified from a “domestic” gene, in this case the RNA of the gene encoding for the glyceraldehyde-3-phosphate dehydrogenase (GAPDH). As from the number of cycles corresponding to an amplification with a 100% efficiency, the relative quantity of cDNAs studied was calculated using the 2-AACT method (Livak & Schmittgen, 2001).
(§4) The control (Ctrl) corresponds to the expression of the genes coding for both types of collagen when the fibroblasts are not treated.

COL3A1 gene = experiment: Gene expression of COL3A1 in fibroblast cultures (real-time PCR); assay type: cell-based, human; details: fibroblasts, 100 μg/ml, 24 h; for gene expression of type III collagen (COL3A1): normalised to GAPDH
Description: as §1, §2, §3, §4

type I collagen = experiment: Protein expression of type I collagen in dermal fibroblasts (Western Blot, ImageJ); assay type: cell-based, human; details: peptide 100 μg/ml, vs untreated control
Description: (§5) The dermal fibroblasts were isolated from abdomen skin biopsies obtained during surgery operations performed on healthy patients between 35 and 75 years of age.
(§6) After removing the epidermis, the fibroblasts were recovered by enzymatic digestion, then were cultured at 37° C. in DMEM (Dulbecco's Modified Eagle Medium) medium supplemented with 10% fetal calf serum and 1% penicillin/streptomycin.
(§7) The fibroblasts were then treated with the peptide having sequence […] (SEQ. ID NO. 1), or various fragments of this sequence, at a concentration of 100 μg/ml. The various fragments tested are as follows: • peptide 1 (pept 1): peptide having the sequence […] (SEQ. ID NO. 1), • peptide 2 (pept 2): sequence […] (SEQ. ID NO. 1), wherein N-terminal and C-terminal ends correspond to N and OH, respectively • peptide 3 (pept 3): (VGVAPG (SEQ. ID NO: 29))3, wherein N-terminal and C-terminal ends correspond to N and OH, respectively • peptide 4 (pept 4): RVRLIL (SEQ. ID NO. 32, wherein N-terminal and C-terminal ends correspond to N and OH, respectively • peptide 5 (pept 5): N-Gly-Ile-Leu-OH
The protein expression of the type I collagen and the type III collagen has then been shown by Western Blot and quantified by ImageJ. The results are shown respectively in the attached FIGS. 3A and 3B. The control (Ctrl) corresponds to the expression of type I and III collagen at the level of cells not treated with peptides. The experiments were performed in triplicate.

[1] = test system: type I and type III collagen; experiment: Collagen expression depending on the age of the patients; assay type: cell-based, human; details: dermal fibroblasts from patients
Description: Dermal fibroblasts from younger or older patients were cultured and the bifunctional peptide according to the invention having the sequence […] (SEQ. ID NO. 1) has been tested as to the protein and gene expression of type I and type III collagen. The results obtained as regards the protein expression of the two types of collagen are visible in FIG. 5.

dermal fibroblasts = experiment: Toxicity on dermal fibroblasts; assay type: cell-based; details: peptide concentrations up to 1 mg/ml
Description: (§8) According to an embodiment, the bifunctional peptide is used preferably at a concentration substantially between 10 μg/ml and 1 mg/ml. Indeed, no toxicity of the peptide according to the invention has been observed on dermal fibroblasts treated with peptide concentrations up to 1 mg/ml. In addition, studies conducted in order to find the toxicity genes through the SAM (Significance Analysis of Microarrays) statistical approach have shown that the cell death, the disruption of the conjunctive tissue and the tumor invasion are induced only from a high concentration of bifunctional peptide, higher than 1 mg/ml.

urokinase [2] = biological target: T1, urokinase (Homo sapiens, UniProt P00749); experiment: Urokinase activity on synthetic substrate S2444; assay type: biochemical
Description: The activity of the urokinase on its synthetic substrate, D-Glu-Gly-Arg+NHPhNO2 L-Pyroglutamyl-glycyl-L-arginine-p-Nitroaniline hydrochloride (2444) has been tested in the presence and absence of the peptide according to the invention at different concentrations.
A kinetics of hydrolysis of the substrate S2444 […] by the urokinase (9.25*10^−6 mM) was carried out in the presence of the bifunctional peptide having the sequence […] (SEQ. ID NO. 1) and concentrated at 10^−3, 10^−4 and 10^−5 M for 1 hour. The control corresponds to the kinetics in the absence of peptide. The enzyme activity was evaluated by measuring the absorbance (DO) at 405 nm every 5 minutes for a period of 35 min.
FIG. 6B is a graphical representation of the dose/effect relationship between the activity of the urokinase and the concentration of the bifunctional peptide used at time 15 min. The dotted line in the figure permits to determine the IC50, i.e. the peptide concentration required to reduce the activity of the urokinase by 50%.

toxicity genes = experiment: Toxicity genes through the SAM (Significance Analysis of Microarrays) statistical approach; assay type: cell-based
Description: as §8

type III collagen = experiment: Protein expression of type III collagen in dermal fibroblasts (Western Blot, ImageJ); assay type: cell-based, human; details: peptide 100 μg/ml
Description: as §5, §6, §7
The protein expression of the type I collagen and the type III collagen has then been shown by Western Blot and quantified by ImageJ. The results are shown respectively in the attached FIGS. 3A and 3B. […]

urokinase [3] = biological target: T1, urokinase; experiment: Cleavage of the bifunctional peptide by the urokinase (HPLC); details: excess of urokinase, peptide 0.45 mM
Description: At the pericellular level, an excess of urokinase was observed, of about 10^−4 M. The peptide could thus be cleaved by the urokinase, the latter acting in particular at the level of the arginine residues (Arg) of the portion B of the peptide according to the invention.
Studies were conducted by HPLC on a Chromolith Jupiter C18 column (50×4.6 mm), and applying a linear gradient of 0.1% TFA of acetonitrile in 0.1% TFA of water, 0 to 100% for 100 min. […] However, after the action of an excess of urokinase on the bifunctional peptide (0.45 mM), the spectral peak was different; indeed, the new peak was eluted at 20 min, thus characterizing a cleavage of the bifunctional peptide by the urokinase (FIG. 8B).

MMP-1 [4] = biological target: T2, MMP-1 (Homo sapiens, UniProt P03956); experiment: MMP-1 activity on natural substrate, collagen fibers of human dermis (cuts of skin, immunostaining); details: APMA-activated MMP-1, peptide 100 μg/ml, 3 h
T2 sequence (P03956 100-469): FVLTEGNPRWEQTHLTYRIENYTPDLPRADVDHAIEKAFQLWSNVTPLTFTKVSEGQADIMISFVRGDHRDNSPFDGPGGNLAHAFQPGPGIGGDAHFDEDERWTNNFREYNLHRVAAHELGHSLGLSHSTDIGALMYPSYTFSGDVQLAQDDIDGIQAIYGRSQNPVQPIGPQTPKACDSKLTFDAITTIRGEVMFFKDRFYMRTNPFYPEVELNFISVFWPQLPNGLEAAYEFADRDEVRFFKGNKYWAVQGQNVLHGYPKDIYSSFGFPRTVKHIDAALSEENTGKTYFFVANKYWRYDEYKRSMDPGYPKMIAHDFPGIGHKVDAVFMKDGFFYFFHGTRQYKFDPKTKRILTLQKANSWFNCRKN
Description: The effects of the peptide according to the invention were also tested on the activity of the MMP-1 in the presence of its natural substrate, i.e. the collagen fibers of human dermis.
To this end, the MMP-1 has previously been activated by APMA (4-aminophenylmercuric acetate) at 20 mM for 1 h30 at 37° C. The so activated MMP-1 was then deposited on cuts of skin having a thickness of 5μ in the presence or absence of the peptide according to the invention (100 μg/ml). After 3 h, the cuts of skin were immunostained, in order to reveal the presence of type I and III collagen, then observed by confocal microscopy. […] On the other hand, in the presence of the bifunctional peptide, the action of said MMP-1 was inhibited; indeed, the collagens I and III were detected.

MMP-1 [5] = biological target: T2, MMP-1; experiment: MMP-1 activity on synthetic substrate DNP-Pro-Cha-Gly-Cys (Me)-His-Ala-Lys (N-Me-Abz)-NH2; assay type: biochemical
Description: The substrate of the MMP-1 that was used to test its activity in the presence of the peptide is a synthetic substrate, DNP-Pro-Cha-Gly-Cys (Me)-His-Ala-Lys (N-Me-Abz)-NH2.
A concentration of 80 ng/μl of MMP-1 was brought in the presence of 0.4 ng/μl of synthetic substrate, in the presence or not of bifunctional peptide concentrated at 10^−3, 10^−4 and 10^−5 M for 1 h.
More particularly, FIG. 7A represents a kinetics of hydrolysis of the synthetic substrate of the MMP-1 in the presence or absence (control) of the peptide at different concentrations. The enzymatic activity of the MMP-1 was evaluated by measuring the absorbance (DO) at 465 nm every 5 minutes for a period of 35 min.
FIG. 7B is a graphical representation of the dose-effect relationship between the activity of the MMP-1 and the concentration of bifunctional peptide used at time 15 min.
The Gly-Ile-Leu (GIL) sequence was selected by the inventors for its capability of occupying the P′1, P′2 and P′3 pockets of type I collagenase, the MMP-1. The activity of the latter has been tested on the synthetic substrate, the DNP-Pro-Cha-Gly-Cys (Me)-His-Ala-Lys(N-Me-Abz)-NH2, in the presence or absence of the peptide 5 having the Gly-Ile-Leu (GIL) sequence at concentrations of 10^−5, 10^−4 and 10^−3 M.

effect on the activity of the MMP-1 on its synthetic substrate (MMP-1 [5]; 10^−5, 10^−4 and 10^−3 M)	IC50 (MMP-1 [5]; synthetic substrate, time 15 min, read-out: IC50 MMP-1 activity, peptide concentration (converted)) [µM]	Compound	gene expression of type I collagen (COL1A1) (COL1A1 gene)	gene expression of type III collagen (COL3A1) (COL3A1 gene)	stimulation of the protein expression of the type I collagen (type I collagen)	action on the synthesis of collagen depending on the age of the patients [1]	toxicity on dermal fibroblasts (dermal fibroblasts)	mode of urokinase inhibition (urokinase [2])	concentration from which cell death, disruption of the conjunctive tissue and tumor invasion are induced (toxicity genes)	increase in the synthesis of type III collagen compared to fibroblasts treated with pept 3 (type III collagen; relative to pept 3) [%]	production of type III collagen (type III collagen; vs untreated control)	cleavage by urokinase (urokinase [3])	synthesis of type III collagen (gene expression) with respect to cells treated with peptide 3 (COL3A1 gene; relative to peptide 3)	action of MMP-1 on collagens I and III of cuts of skin (MMP-1 [4])
		VGVAPGVAVAPGVAVAPGRVRLGIL [pept 2]	stimulate	stimulate	30%									
		RVRLIL [pept 4, ID NO; 32]	no effect	no effect	do not permit the stimulation									
		CC[C@H](C)[C@H](NC(=O)CNC(=O)[C@H](CC(C)C)NC(=O)[C@H](CCCNC(=N)N)NC(=O)[C@@H](NC(=O)[C@H](CCCNC(=N)N)NC(=O)CNC(=O)[C@@H]1CCCN1C(=O)[C@H](C)NC(=O)[C@@H](NC(=O)[C@H](C)NC(=O)[C@@H](NC(=O)CNC(=O)[C@@H]1CCCN1C(=O)[C@H](C)NC(=O)[C@@H](NC(=O)[C@H](C)NC(=O)[C@@H](NC(=O)CNC(=O)[C@@H]1CCCN1C(=O)[C@H](C)NC(=O)[C@@H](NC(=O)CNC(=O)[C@@H](N)C(C)C)C(C)C)C(C)C)C(C)C)C(C)C)C(C)C)C(C)C)C(=O)N[C@@H](CC(C)C)C(=O)O [pept 1] (H-VGVAPGVAVAPGVAVAPGRVRLGIL-OH)	stimulate	stimulate	30%	greater when the fibroblasts proceed from older patients	no toxicity	competitive inhibitor	higher than 1 mg/ml	36	more than doubled	cleavage	increase	inhibited
		(VGVAPG (SEQ. ID NO: 29))3 [pept 3]	stimulate	stimulate	30%									
decreases in a dose-dependent way	70.7	CC[C@H](C)[C@H](NC(=O)CN)C(=O)N[C@@H](CC(C)C)C(=O)O [pept 5, N-Gly-Ile-Leu-OH] (H-Gly-Ile-Leu-OH)	no effect	no effect	do not permit the stimulation									
